This is an account of results in paper PMC4718634, “Murine GPRC6A Mediates Cellular Responses to L-Amino Acids, but Not Osteocalcin Variants” (PLoS ONE, 2016).

The subject of one assay is PC-3 cells. The conditions noted are these: endogenous; ref [18] (supplement list); cited from earlier work. From the text: (§1) Supplement pone.0146846.s004.docx, table 1 | column: Functional assay
The next assay deals with mC6A. The conditions noted are these: cited from earlier work.
From the text: as §1

For the next assay, the system named is GPRC6A. The note with it: bind in the 7TM domain; ref [3], [4]; cited from earlier work. The source says: GPRC6A is a class C G protein-coupled receptor (GPCR) that has been cloned from human, mouse and rat. The receptor was initially deorphanised by fusion of its large N-terminal domain to the heptahelical and C-terminal region of the related goldfish 5.24 receptor [1]. […] These ligands are thought to bind in the N-terminal domain of the receptor [2] in a manner analogous to the binding of L-glutamate to metabotropic glutamate receptors. Small molecules, ...

Assay [1] relates to GLUTag cells. The note with it: endogenous; ref [17] (supplement list); cited from earlier work.
From the text: as §1

The subject of assay [2] is GLUTag cells. Nature of the assay: GLP-1 release from GLUTag cells. Type of assay: cell-based, murine. The conditions noted are these: NPS-2143 10 μM, 30 min pre-treatment; ^P < 0.05 vs L-ornithine alone; Fig 6A. The protocol: Intestinal L-cell model GLUTag cells were seeded in 24-well plates coated with Matrigel and incubated for 6 days in DMEM with 10% FBS, 100 U/ml penicillin, 100 μg/ml streptomycin at 37°C in 5% CO2 and grown for 4–5 days. Where indicated, cells were washed (1 or 2 x 1h) with Krebs-HEPES buffer (20 mM HEPES, 118 mM NaCl, 4.7 mM KCl, 1.2 mM MgSO4, 5 mM NaHCO3, 1.2 mM KH2PO4, 2.5 mM CaCl2, 5.5 mM glucose, 0.2% BSA (w/v), pH 7.2) containing vildagliptin (300 μM) prior to addition of test compounds in the same buffer. After 2 h incubation at 37°C in 5% CO2, the supernatant was recovered and centrifuged at 500 rpm for 5 min. Where used, NPS-2143 pre-treatment was for 30 min.
GLP-1 content in the cell supernatant was measured by ELISA (EGLP-35K, Millipore), according to manufacturer’s instructions after overnight incubation of 15 μl supernatant in 100 μl Krebs-HEPES buffer at 4°C. After 5 x washes, 200 μl of detection conjugate was added and incubated for 2 h at RT. After 3 x washes the reaction was developed with 200 μl of diluted substrate (1:200) for 20 min and terminated by addition of 50 μl stop solution. After 5 min, fluorescence was then measured using 355 nm excitation and 460 nm emission, transforming the obtained signal into pmol GLP-1/well/ml and corrected for GLUTag cell protein content as determined using the method of Bradford (1976).
(§2) Concentration-response data were analysed using a three or four parameter logistic function (Motulsky & Christopoulos, 2004) to generate estimates of agonist potency (LogEC50). Data for all HEK293 assays represent the mean ± SEM of at least three independent experiments (except cell impedance, n = 2). For GLP-1 release, the data represent mean ± SEM of three to five independent experiments (except for OCN, wash; n = 2). For insulin release assays, data represent the mean ± SEM of three independent experiments (except for islet studies; n = 2). Insulin release data were normalised to the response to vehicle in either low or high [glucose]. Statistical analysis for GLP-1 release data were performed by one-way ANOVA, followed by Sidak’s multiple comparisons test (treating wash / no wash datasets separately). Statistical analyses for insulin release data were performed by two-way ANOVA (with [glucose] and drug treatment as group variables), followed by Sidak’s multiple comparisons test. Where only high [glucose] groups were evaluated, statistical analysis was by one-way ANOVA followed by Sidak’s multiple comparisons test.

Another assay concerns MIN6 cells. Kind of assay: Insulin release from MIN6 cells. Type of assay: cell-based, murine. The note with it: NPS-2143 10 μM; ^^P < 0.01 vs L-ornithine alone; Fig 6B. The protocol:
MIN6 or βTC-6 cells were seeded in 24-well plates at 170,000 cells per well in DMEM (containing 4.5g/L glucose, 10 mM HEPES, 100 U/ml penicillin, 100 μg/ml streptomycin and 15% de-complemented FBS) and incubated at 37°C / 5% CO2 for 72 h. Cells were then washed with 500 μl PBS and incubated in 500 μl deprivation media (DMEM with zero glucose, 10 mM HEPES, 1 mM Na-pyruvate, 100 U/ml penicillin, 100 μg/ml streptomycin, 15% de-complemented FBS) for 2 h at 37°C. Media was aspirated and after washing with 500 μl PBS, cells were treated with 250 μl of Krebs buffer (250 mM NaCl, 5.9 mM KCl, 1.2 mM MgCl2, 1.3 mM CaCl2, 25 mM HEPES, 0.1% BSA (w/v), and 2 mM or 16.7 mM glucose; pH 7.4) in the presence or absence of test compound. After incubation for 2 h at 37°C, the assay was terminated by placing the plates on ice and supernatants were transferred to a 96-well plate in preparation for insulin ELISA (Alpco) following manufacturer’s instructions. The cell monolayer was washed twice with 500 μl of PBS and then lysed using 250 μl of 1 N NaOH prior to protein measurement by the method of Bradford (1976).
as §2

For the next assay, the target named is T1, mGPRC6A (mouse GPRC6A) (Mus musculus, UniProt Q8K4Z6).
T1 sequence (Q8K4Z6 21-928): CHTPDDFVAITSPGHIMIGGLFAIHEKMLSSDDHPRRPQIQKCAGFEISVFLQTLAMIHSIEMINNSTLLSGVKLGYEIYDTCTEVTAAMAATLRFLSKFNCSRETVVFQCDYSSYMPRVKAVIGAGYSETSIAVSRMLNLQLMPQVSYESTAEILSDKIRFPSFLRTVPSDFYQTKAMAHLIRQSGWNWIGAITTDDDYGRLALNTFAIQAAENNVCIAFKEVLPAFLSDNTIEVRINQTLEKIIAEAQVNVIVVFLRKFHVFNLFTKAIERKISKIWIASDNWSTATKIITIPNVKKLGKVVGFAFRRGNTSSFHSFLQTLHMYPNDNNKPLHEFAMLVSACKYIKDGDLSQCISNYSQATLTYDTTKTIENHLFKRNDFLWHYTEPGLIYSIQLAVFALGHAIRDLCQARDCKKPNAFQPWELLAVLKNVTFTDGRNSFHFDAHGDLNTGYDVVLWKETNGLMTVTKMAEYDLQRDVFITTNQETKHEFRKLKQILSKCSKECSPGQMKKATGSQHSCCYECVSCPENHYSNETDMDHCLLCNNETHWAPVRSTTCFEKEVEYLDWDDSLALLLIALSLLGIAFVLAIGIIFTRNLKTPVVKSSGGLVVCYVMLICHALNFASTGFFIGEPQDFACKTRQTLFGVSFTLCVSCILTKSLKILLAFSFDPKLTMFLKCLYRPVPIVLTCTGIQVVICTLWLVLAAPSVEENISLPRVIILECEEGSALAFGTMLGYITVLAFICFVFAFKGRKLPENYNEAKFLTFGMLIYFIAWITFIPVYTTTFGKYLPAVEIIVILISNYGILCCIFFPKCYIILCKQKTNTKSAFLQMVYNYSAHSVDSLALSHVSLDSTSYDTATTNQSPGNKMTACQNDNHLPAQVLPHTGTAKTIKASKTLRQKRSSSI
Nature of the assay: Inositol phosphate (IP-One HTRF) accumulation, FlpIn-TREx-HEK293-mGPRC6A cells. The conditions noted are these: NPS-2143 30 μM; Fig 1C. Type of assay: cell-based. The procedure:
pcDNA 5/FRT/TO constructs were isogenically integrated into a FlpIn-TREx-HEK293 cell line (Life Technologies). FlpIn-TREx-HEK293-mGPRC6A and FlpIn-TREx-HEK293-hGPRC6A cells were then selected using 600 μg/ml hygromycin and 5 μg/ml blasticidin and grown in culture medium consisting of Dulbecco’s Modified Eagle Medium (DMEM), supplemented with 10% (v/v) foetal bovine serum (FBS) at 37°C in 5% CO2 and were sub-cultured in a 1:3 ratio every 3–4 days. Cells were cultured overnight in the presence of 1 μg/ml tetracycline to induce GPRC6A expression. […] 48 h after transfection, cells were selected using 3 μg/ml puromycin and grown as above.
Inositol phosphate (IPX) accumulation experiments were performed using the IP-One HTRF® assay kit (Cisbio, France). Briefly, 24h after transfection with G proteins (as above), 10^5 cells were seeded per well in PDL-coated, 96-well white plates and incubated overnight. Cells were then washed 2 x 2h at 37°C in HBSS buffer (pH 7.2) containing 20 mM HEPES, 3.5 mM NaHCO3, 1 mM CaCl2 and 0.1% (w/v) BSA. Test compounds were then prepared in the kit stimulation buffer containing 2 mM CaCl2; cells were then incubated with 70 μl of drugs for 30 min, after which 15 μl of both IP1-D2 and Ab-Cryp were added to the cells, followed by a 1 h incubation at RT. Plates were read using an Envision plate reader (Perkin Elmer), using an HTRF protocol. Results were calculated from the 665nm / 620nm HTRF ratio (Ratio = A665nm/A620nm x 10^4) and expressed as a percentage of the maximal response obtained.
as §2
(Time-resolved FRET reads energy transfer from a long-lived donor to a nearby acceptor.)

“Also recorded” adds a separate entry of the source. Like-named read-outs stand apart in the source and are kept apart here.

Regarding `C[C@]12CC[C@H]3[C@@H](CCC4=CC(=O)CC[C@@]43C)[C@@H]1CC[C@@H]2O` [Testosterone], in the assay on PC-3 cells, the pERK1/2 response result is on record as “pERK1/2 – response to Testosterone, L-Arg”. In addition, in the assay with mC6A (ref [13] (supplement list)), the “IP-One HTRF response” value is given as “No response”, the cAMP response entry was “no response” and the pERK response result was “No specific response”. Further, in the assay with mC6A (ref [18] (supplement list)), the cAMP response result is reported as “cAMP – response to Testosterone, L-Arg pERK1/2 – response to Testosterone” and the pERK1/2 response entry is on record as “cAMP – response to Testosterone, L-Arg pERK1/2 – response to Testosterone”.
With `C[C@@H](NCc1cc2ccccc2[nH]1)c1cccc2ccccc12` [calindol], the “modulation of GPRC6A” value in the assay on GPRC6A was “negative allosteric modulators”. Moreover, in the assay with GLUTag cells [1], the “antagonism, Ca^2+i” value is on record as “antagonist” and the “antagonism, GLP-1 secretion” value was “antagonist”.
For the compound `CC(C)(Cc1ccc2ccccc2c1)NC[C@@H](O)COc1cccc(Cl)c1C#N` [NPS-2143], in the assay on GLUTag cells [2], the “reversal of L-ornithine-stimulated GLP-1 release” value is “fully reversed; also recorded: significantly reversed; also recorded: NPS-2143-sensitive”. In addition, the “modulation of GPRC6A” value in the assay with GPRC6A is on record as “negative allosteric modulators”. The “reversal of L-ornithine-stimulated insulin secretion” value in the assay on MIN6 cells was “fully reversed”. Further, the “inhibition of L-ornithine-stimulated inositol phosphate accumulation” value on mGPRC6A (mouse GPRC6A) is recorded as “inositol phosphate accumulation in response to L-ornithine was sensitive to application of the GPRC6A antagonist, NPS-2143; also recorded: can be inhibited with the antagonist”.
